One data set deals with HCT-116 p21^−/−. The conditions noted are these: cited from earlier work.
The test system of the next data set is HCT-116 p21^+/+. The conditions noted are these: cited from earlier work.
The test system of data set [1] is OSBP1 localization in A549 cells. Kind of data set: OSBP1 localization by immunofluorescence microscopy, A549. Format: cell-based, human. Here is the method: (§1) Immunofluorescence microscopy. HCT-116 or A549 (adenocarcinomic human alveolar basal epithelial) cells were plated on coverslips in 6-well plates. After 72 h, the culture media was removed and replaced with media containing either compound or vehicle control. At the indicated time-points, the cells were fixed for 10 min using 3.7% formaldehyde in PBS. The coverslips were washed with PBS and permeabilized for 5 min with 0.5% Triton X-100 in PBS. Following PBS washing, the coverslips were blocked for 30 min using Image-iT™ FX (Invitrogen), washed with PBS, and then blocked for 30 min at room temperature (RT) with 1% BSA in PBS (BSA/PBS). The coverslips were then incubated overnight at 4° C. with a primary antibody solution in BSA/PBS. The coverslips were washed with BSA/PBS and incubated for 60 min at RT with Alexa Fluor®-conjugated secondary antibodies (Invitrogen) in BSA/PBS, with the final 30 min including incubation with Hoescht 33258. The coverslips were then washed sequentially with BSA/PBS, PBS, and water and finally mounted on microscope slides using Aqua Poly/Mount (Polysciences Inc.). Imaging data was acquired using Zeiss LSM 510 META scanning confocal microscope.
Perturbations of OSBP1 localization by 1, 2, and 4b in A549 cells were also observed.

A further data set has as its system HCT-116 cells. Put plainly: Growth inhibition with 25-OHC co-administration. Format: cell-based, human. The conditions noted are these: 10 μM 25-OHC for 1 and 2. The protocol:
25-OHC (11) is a high-affinity ligand of OSBP1 and ORP4L that is not cytotoxic at concentrations up to 10 μM. Example 1 established that the ORPphilins compete with 25-OHC for binding to OSBP1 and ORP4L (FIG. 2D,E). Therefore, if OSBP1 and ORP4L mediate the biological activities of these compounds, co-administration of sub-lethal doses of 25-OHC with the ORPphilins should inhibit binding of the ORPphilins to OSBP1 and ORP4L, thereby desensitizing cells to the cytotoxic effects of the ORPphilins.

Data set [2] concerns HCT-116 p21^−/− cells with OSBP1-targeting shRNA. Kind of data set: OSBP1 shRNA knockdown/dose-shift experiment. Format: cell-based, human. The conditions noted are these: shOSBP1 vs shNT, 72 h. The source says: FIG. 3A is a series of four bar graphs depicting knockdown/dose-shift experiment in HCT-116 p21^−/− cells stably transfected with either OSBP1-targeting shRNA (shOSBP1) or non-targeting shRNA (shNT). Bars represent s.d. of three or four individual experiments. * P=0.0002 (n=3); ** P=0.0006 (n=4); *** P=0.0003 (n=3) compared to shNT cells (two-tailed students t-test).
To ascertain if the antiproliferative activity of the ORPphilins depended on the levels of OSBP1 and ORP4L in cells, short hairpin RNA (shRNA) knockdown of OSBP1 expression was performed and then its effect on the growth inhibitory activity of 1, 2, and 4a measured. […] Similar results were obtained in HeLa cells. Overexpression of OSBP1-myc-his or ORP4L-myc-his (FIG. 3C) for 48 h desensitized HeLa cells to the antiproliferative activity of 1, 2, or 4a by ˜2-5-fold (FIG. 3D). However, taxol-induced growth inhibition was not affected by overexpression of OSBP1-myc-his or ORP4L-myc-his (FIG. 3D).

The test system of data set [3] is HeLa cells overexpressing OSBP1-myc-his or ORP4L-myc-his. Put plainly: Overexpression-viability assay, OSBP1-myc-his or ORP4L-myc-his. Format: cell-based. The conditions noted are these: 48 h, vs lacZ. Here is the method: (§2) Overexpression-viability assays with wild-type and mutant OSBP/ORP4L constructs were carried out by transfecting HeLa cells with the appropriate plasmids using Lipofectamine™ LTX with PLUS™ reagent (Invitrogen) as instructed, and after 8 h of transfection, the cells were re-plated for the cell viability assay, performed as described above. Expression levels were evaluated by immunoblotting at the time of dosing.

The subject of data set [4] is HeLa cells overexpressing OSBP1(M446W)-myc-his. Kind of data set: Overexpression-viability assay, OSBP1(M446W)-myc-his. Format: cell-based. The conditions noted are these: 48 h. Here is the method: as §2
(§3) For additional support that OSBP1 and ORP4L are targets of the ORPphilins, dominant drug-resistant alleles of these proteins were sought. 15 OSBP1 residues inside and outside the region of the protein previously reported to mediate sterol binding were mutated (FIG. 4C). The growth inhibition induced by the ORPphilins was determined in HeLa cells overexpressing either wild-type or mutant OSBP1-myc-his proteins. Expression of wt OSBP1-myc-his and mutant OSBP1-myc-his were nearly equivalent as measured by western blot.
(§4) The same mutant caused a 3.9-fold reduction in the antiproliferative activity of OSW-1 (2) (FIG. 4E2) and a 2.7-fold reduction in the activity of schweinfurthin A (4a) (FIG. 4E3). […] The antiproliferative activity of taxol was unaffected by expression of these two OSBP1 mutant proteins (FIGS. 4E4, 4E8).

Data set [5] concerns HeLa cells overexpressing OSBP1(V582M). Put plainly: Overexpression-viability assay, OSBP1(V582M)-myc-his. The conditions noted are these: 48 h. Format: cell-based. The protocol: as §2, §3, §4
Another data set concerns CHO-K1 cells. Kind of data set: Sphingomyelin biosynthesis, [3H]-serine pulse-labeling, CHO-K1. Format: cell-based. Here is the method:
Sphingomyelin is biosynthesized from ceramide at the Golgi apparatus. Ceramide is primarily transported from the ER to the Golgi by ceramide transport protein (CERT), and the transport activity of CERT is both OSBP1- and VAP-A dependent. […] To determine whether the ORPphilins affect sphingomyelin synthesis, pulse-labeling with [^3H]-serine was performed in CHO-K1 and HCT-116 cells and the amount of tritium incorporated into sphingomyelin and other lipids then measured. Cells were treated with vehicle or compound for 6 h, and in the last 2 h the cells were pulsed with 10 μCi [^3H]-serine. Lipids were extracted and isolated by TLC, and label incorporation into sphingomyelin was measured by scintillation counting.

The target in a further data set is T1, OSBP1-myc-his (Homo sapiens, UniProt P22059).
T1 construct: made in house; host or cells: HEK-293T (transient transfection; S100 lysate, not purified)
T1 sequence (P22059 1-807): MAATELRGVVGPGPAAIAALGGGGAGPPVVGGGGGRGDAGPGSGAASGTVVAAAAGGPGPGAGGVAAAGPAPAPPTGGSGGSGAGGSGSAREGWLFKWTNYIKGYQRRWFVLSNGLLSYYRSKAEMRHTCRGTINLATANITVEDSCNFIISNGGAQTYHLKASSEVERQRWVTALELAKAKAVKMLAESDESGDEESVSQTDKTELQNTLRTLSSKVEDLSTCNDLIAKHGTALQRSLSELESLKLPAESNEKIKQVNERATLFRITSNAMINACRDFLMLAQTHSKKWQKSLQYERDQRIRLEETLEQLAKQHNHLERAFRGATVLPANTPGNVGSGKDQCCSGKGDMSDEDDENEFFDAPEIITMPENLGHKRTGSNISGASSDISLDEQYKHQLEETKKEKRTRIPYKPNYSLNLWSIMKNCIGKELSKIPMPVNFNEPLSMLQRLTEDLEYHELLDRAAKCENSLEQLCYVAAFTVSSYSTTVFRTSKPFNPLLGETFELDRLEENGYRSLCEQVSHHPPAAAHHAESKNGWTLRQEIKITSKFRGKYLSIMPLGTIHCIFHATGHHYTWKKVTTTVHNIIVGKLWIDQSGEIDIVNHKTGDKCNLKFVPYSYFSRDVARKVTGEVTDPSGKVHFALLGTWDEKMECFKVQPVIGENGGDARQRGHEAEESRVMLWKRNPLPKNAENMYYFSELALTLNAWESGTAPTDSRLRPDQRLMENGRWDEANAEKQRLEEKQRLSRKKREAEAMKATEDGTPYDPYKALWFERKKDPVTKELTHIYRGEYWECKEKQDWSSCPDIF
Kind of data set: [3H]-25-hydroxycholesterol charcoal-dextran binding assay with OSBP1-myc-his. The conditions noted are these: competition with 20 nM [3H]-25-OHC, HEK-293T S100 lysate, 4° C., 16 h; read-out: [^3H]-25-OHC K1 (nM) OSBP1-myc-his. The source says: [^3H]-25-Hydroxycholesterol charcoal-dextran binding assay.
Methods are described above in the General Methods section.

For data set [6], the system named is OSBP1 localization in HCT-116 cells. Kind of data set: OSBP1 localization by immunofluorescence microscopy, HCT-116. Format: cell-based, human. The conditions noted are these: 4 h treatment. Here is the method: as §1
Although the function of OSBP1 is not yet fully elucidated, several cellular activities have been observed. For instance, OSBP1 translocates from cytoplasmic sites to the trans-Golgi network (TGN) upon addition of 25-OHC to cells. HCT-116 cells were treated with ORPphilins for short time periods (4 h) and the effects on OSBP1 localization monitored using immunofluorescence microscopy.
OSBP1 (green) and trans-Golgi protein P230 (red) were visualized in HCT-116 cells using indirect immunofluorescence microscopy. Cells were treated with compound for 4 h, fixed with 3.7% formaldehyde/PBS, washed, and permeabilized using 0.5% Triton X-100 in PBS. Proteins were labelled using specific primary antibodies against OSBP1 and P230 overnight at 4° C. After washing, cells were treated with Alexa Fluor 488 and Alexa Fluor 546 secondary antibodies for 1 h at RT.

Another data set deals with T2, ORP4L-myc-his (Homo sapiens, UniProt Q969R2).
T2 sequence (Q969R2 1-916): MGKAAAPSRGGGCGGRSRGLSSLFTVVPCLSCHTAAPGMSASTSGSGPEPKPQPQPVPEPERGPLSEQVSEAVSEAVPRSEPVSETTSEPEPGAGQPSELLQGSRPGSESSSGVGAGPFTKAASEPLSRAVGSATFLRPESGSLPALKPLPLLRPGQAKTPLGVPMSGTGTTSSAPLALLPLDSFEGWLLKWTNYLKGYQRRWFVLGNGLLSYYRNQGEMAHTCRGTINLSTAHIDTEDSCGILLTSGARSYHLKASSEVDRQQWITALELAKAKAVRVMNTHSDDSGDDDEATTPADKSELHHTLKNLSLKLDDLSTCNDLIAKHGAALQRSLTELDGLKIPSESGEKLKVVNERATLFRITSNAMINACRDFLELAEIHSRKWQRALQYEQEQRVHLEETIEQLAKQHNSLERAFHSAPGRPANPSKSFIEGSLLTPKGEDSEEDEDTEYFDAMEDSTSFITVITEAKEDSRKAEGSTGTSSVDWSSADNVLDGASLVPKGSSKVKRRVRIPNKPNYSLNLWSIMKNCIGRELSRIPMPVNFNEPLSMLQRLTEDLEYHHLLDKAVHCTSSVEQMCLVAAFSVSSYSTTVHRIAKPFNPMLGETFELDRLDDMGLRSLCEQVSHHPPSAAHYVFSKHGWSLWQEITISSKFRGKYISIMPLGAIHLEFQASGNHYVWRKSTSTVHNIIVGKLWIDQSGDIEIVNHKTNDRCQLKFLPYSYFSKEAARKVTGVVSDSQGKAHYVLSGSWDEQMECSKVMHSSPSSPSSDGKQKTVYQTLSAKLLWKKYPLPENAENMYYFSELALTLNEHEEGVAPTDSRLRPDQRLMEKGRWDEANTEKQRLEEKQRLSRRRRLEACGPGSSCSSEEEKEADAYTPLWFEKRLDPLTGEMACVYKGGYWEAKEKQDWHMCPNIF
Put plainly: [3H]-25-hydroxycholesterol charcoal-dextran binding assay with ORP4L-myc-his. The conditions noted are these: read-out: [^3H]-25-OHC K1 (nM) ORP4L-myc-his; competition with 20 nM [3H]-25-OHC, HEK-293T S100 lysate, 4° C., 16 h.

Some results are limits rather than exact numbers.

The values below come from US9790253B2, “OSW-1 analogs and conjugates, and uses thereof” (priority 2011, dated 2017).

As to `CC(/C=C/C=C(C)/C=C/C=C(\C)C(=O)O)=C1/C(=O)C[C@H]2[C@@]3(C)CCC(=O)C(C)(C)[C@@H]3CC[C@]12C` [(−)-stellettin E, (−)-Stellettin E], in the data set with HCT-116 p21^−/−, the GI50 was 39 nM and the “times more cytotoxic to HCT-116 p21−/− than to parental HCT-116” value is 117 times. Further, the GI50 in the data set on HCT-116 p21^+/+ was 4570 nM.

For the compound `COc1cc(/C=C/c2cc(O)c(C/C=C(\C)CCC=C(C)C)c(O)c2)cc2c1O[C@]1(C)C[C@@H](O)[C@@H](O)C(C)(C)[C@H]1C2` [Schweinfurthin B, schweinfurthin B], in [1], the OSBP1 localization result is recorded as “perinuclear OSBP1-staining similar to 25-OHC”.

Consider `C[C@H]1CCC/C=C/[C@@H]2C[C@H](O)C[C@H]2[C@H](O)/C=C/C(=O)O1` [brefeldin A], for which the “effect of 25-OHC co-administration on the antiproliferative activity” value in the data set with HCT-116 cells is given as “did not affect”.

Regarding `CC(=O)O[C@H]1C(=O)[C@@]2(C)[C@H]([C@H](OC(=O)c3ccccc3)[C@]3(O)C[C@H](OC(=O)[C@H](O)[C@@H](NC(=O)c4ccccc4)c4ccccc4)C(C)=C1C3(C)C)[C@]1(OC(C)=O)CO[C@@H]1C[C@@H]2O` [taxol], the “sensitization by OSBP1 knockdown (GI50 shift)” value in [2] was “did not sensitize”. Further, the “desensitization by overexpression of OSBP1-myc-his or ORP4L-myc-his” value in [3] is given as “not affected”. Further, the “reduction in antiproliferative activity at the GI50 level, OSBP1(M446W) vs wt OSBP1” value in data set [4] is “unaffected”. In addition, the “reduction in antiproliferative activity, OSBP1(V582M) vs wt OSBP1” value in [5] is “unaffected”. The “effect of 25-OHC co-administration on the antiproliferative activity” value in the data set on HCT-116 cells is “did not affect”. For the same compound, the “inhibition of SM biosynthesis (negative controls)” value in the data set with CHO-K1 cells is “did not occur”.

Consider `C/C=C(/C)C(=O)O[C@H]1C(C)=C2[C@H]([C@@H]1OC(=O)CCCCCCC)[C@@](C)(OC(C)=O)C[C@H](OC(=O)CCC)[C@@]1(O)[C@H]2OC(=O)[C@@]1(C)O` [thapsigargin], for which the “inhibition of SM biosynthesis (negative controls)” value in the data set on CHO-K1 cells was “did not occur”.

In the case of ritterazine B, the Ki at OSBP1-myc-his is 28 ± 4 nM; at ORP4L-myc-his, above 360 nM. For the same compound, the OSBP1 localization entry in data set [6] is “effect was also observed”.
